Assay results from patent US20170349532A1, “CATIONIC LIPID” (Kyowa Hakko Kirin Co., Ltd., priority 2011, published 2017).

Assay: Average particle diameter of preparation (Zetasizer Nano ZS)
Format: physicochemical
Conditions: for Particle diameter of Preparetion: average particle diameter of cationic lipid/nucleic acid complex, Example 118 preparation: compound/PEG-DMPE Na/DSPC/cholesterol with apo-b siRNA; for average particle diameter of the complex between the cationic lipis and the nucleic acid in the preparation: Comparative Examples 1 to 8, prepared as Example 118 with apo-b siRNA
Procedure, shortened: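 Lipid nanoparticles formed by mixing cationic lipid/PEG-DMPE Na/DSPC/cholesterol (8.947/1.059/5.708/13.697 mmol/L in 90% ethanol, 37 °C) with apo-b siRNA in Tris-EDTA/citrate buffer pH 5.0, then diluted with citrate/NaCl pH 6.0 and DPBS to 10 μM siRNA. Mean complex diameter measured by dynamic light scattering.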

Row | Compound | Particle diameter of Preparetion | average particle diameter of the complex between the cationic lipis and the nucleic acid in the preparation
1 | CCCCC/C=C\C/C=C\CCCCCCCCCCOCCN(C)CCOCCCCCCCCCC/C=C\C/C=C\CCCCC [Compound 79, N,N-bis(2-((11Z,14Z)-Icos-11,14-dienyloxy)ethyl)-N-methylamine] | 116.5 nm | 
2 | CCCCCCCC/C=C\CCCCCCCCOCC[N+](C)(C)CCOCCCCCCCC/C=C\CCCCCCCC.[Cl-] [Compound 80, N,N-diMethyl-N,N-bis(2-((Z)-octadec-9-enyloxy)ethyl)aminium chloride] | 110.3 nm | 
3 | CCCCCCCC/C=C\CCCCCCCC(=O)OCC[N+](C)(C)CCOC(=O)CCCCCCC/C=C\CCCCCCCC.[Cl-] [Compound 81, N,N-diMethyl-N,N-bis(2-((Z)-octadec-9-enoyloxy)ethyl)aminium chloride] | 103.4 nm | 
4 | CCCCCCCC/C=C\CCCCCCCCOCCN(CCOCCCCCCCC/C=C\CCCCCCCC)CC(O)CO (stereo not shown) [Compound 82, 3-(bis(2-((Z)-Octadec-9-enyloxy)ethyl)amino)propan-1,2-diol] | 125.7 nm | 
5 | CCCCCCCC/C=C\CCCCCCCC(=O)OCCN(CCOC(=O)CCCCCCC/C=C\CCCCCCCC)CC(O)CO (stereo not shown) [Compound 83, 3-(bis(2-((Z)-Octadec-9-enoyloxy)ethyl)amino)propan-1,2-diol] | 169.1 nm | 
6 | CCCCCCCC/C=C\CCCCCCCCOCCN(CCOCCCCCCCC/C=C\CCCCCCCC)CCC(N)=O [Compound 84, 3-(bis(2-((2)-Octadec-9-enyloxy)ethyl)amino)propanamide] | 120.2 nm | 
7 | CCCCCCCC/C=C\CCCCCCCCOCCN(CCOCCCCCCCC/C=C\CCCCCCCC)CCC(=O)N(C)C [Compound 85, 3-(bis(2-((2)-Octadec-9-enyloxy)ethyl)amino)-N,N-dimethylpropanamide] | 120.1 nm | 
8 | CCCCCCCC/C=C\CCCCCCCCOCCN(CCOCCCCCCCC/C=C\CCCCCCCC)C(=O)CN [Compound 86, 2-Amino-N,N-bis(2-((Z)-octadec-9-enyloxy)ethyl)acetamide] | 128.4 nm | 
9 | CCCCCCCC/C=C\CCCCCCCCOCCN(CCOCCCCCCCC/C=C\CCCCCCCC)C(=O)CCN [Compound 87, 3-Amino-N,N-bis(2-((Z)-octadec-9-enyloxy)ethyl)propanamido] | 136.3 nm | 
10 | CCCCCCCC/C=C\CCCCCCCCOCCN(CCOCCCCCCCC/C=C\CCCCCCCC)C(=O)CCCCCN [Compound 88, 6-Amino-N,N-bis(2-((Z)-octadec-9-enyloxy)ethyl)] | 131.9 nm | 
11 | CCCCCCCC/C=C\CCCCCCCCOCCN(CCOCCCCCCCC/C=C\CCCCCCCC)C(=O)CN(C)C [Compound 89, 2-(Dimethylamino)-N,N-bis(2-((Z)-octadec-9-enyloxy)ethyl)acetamide] | 121.5 nm | 
12 | CCCCCCCC/C=C\CCCCCCCCOCCN(CCOCCCCCCCC/C=C\CCCCCCCC)C(=O)CCN(C)C [Compound 90, 3-(Dimethylamino)-N,N-bis(2-((Z)-octadec-9-enyloxy)ethyl)propanamido] | 120.8 nm | 
13 | CCCCCCCC/C=C\CCCCCCCCOCCN(CCOCCCCCCCC/C=C\CCCCCCCC)C(=O)[C@@H](N)CO [Compound 91, (S)-2-Amino-3-hydroxy-N,N-bis(2-((Z)-octadec-9-enyloxy)ethyl)propanamido] | 125.4 nm | 
14 | CCCCCCCC/C=C\CCCCCCCCOCCN(CCOCCCCCCCC/C=C\CCCCCCCC)C(=O)[C@@H](N)CN [Compound 92, (S)-2,3-Diamino-N,N-bis(2-((Z)-octadec-9-enyloxy)ethyl)propanamido] | 143.9 nm | 
15 | CCCCCCCC/C=C\CCCCCCCCOCCN(CCOCCCCCCCC/C=C\CCCCCCCC)C(=O)[C@@H](N)CCCN [Compound 93, (S)-2,5-Diamino-N,N-bis(2-((Z)-octadec-9-enyloxy)ethyl)pentanamido] | 135.1 nm | 
16 | CCCCCCCC/C=C\CCCCCCCCOCCN(CCOCCCCCCCC/C=C\CCCCCCCC)C(=O)[C@@H](N)CCCCN [Compound 94, (S)-2,6-Diamino-N,N-bis(2-((Z)-octadec-9-enyloxy)ethyl)hexanamido] | 137.3 nm | 
17 | CCCCC/C=C\C/C=C\CCCCCCCCCCOC[C@@H]1CN(C(=O)[C@@H](N)CCCCN)C[C@H]1COCCCCCCCCCC/C=C\C/C=C\CCCCC [Compound 115, trans-1-((S)-2,6-Diaminohexanoyl)-3,4-bis(((11Z,14Z)-icos-11,14-dienyloxy)methyl)pyrrolidine] | 152.8 nm | 
18 | CCCCCCCC/C=C\CCCCCCCC(=O)OCC(C[N+](C)(C)C)OC(=O)CCCCCCC/C=C\CCCCCCCC.[Cl-] (stereo not shown) [Compound A-1, N(2,3-di-(9-(Z)-octadecenoyloxy))-prop-1-yl-N,N,N-trimethylammonium chloride, reference compound] |  | 104.0 nm
19 | CCCCCCCC/C=C\CCCCCCCC(=O)O[C@@H]1CN(C)C[C@H]1OC(=O)CCCCCCC/C=C\CCCCCCCC [Compound A-4, (3R,4R)-1-Methylpyrrolidine-3,4-diyl di((Z)-octadec-9-enoate), reference compound] |  | 131.1 nm
20 | CCCCCCCC/C=C\CCCCCCCCO[C@@H]1CN(Cc2ccccc2)C[C@H]1OCCCCCCCC/C=C\CCCCCCCC [Compound VI-4, (3R,4R)-1-Benzyl-3,4-bis((Z)-octadec-9-enyloxy)pyrrolidine, reference compound] |  | 157.8 nm

More lines, now with the values ahead:

Row | Particle diameter of Preparetion | average particle diameter of the complex between the cationic lipis and the nucleic acid in the preparation | Compound
21 | 128.3 nm |  | CCCCCCCC/C=C\CCCCCCCC(=O)OCCN(CCOC(=O)CCCCCCC/C=C\CCCCCCCC)C(=O)CN [Compound 95, 2-Amino-N,N-bis(2-((Z)-octadec-9-enoyloxy)ethyl)acetamide]
22 | 133.2 nm |  | CCCCC/C=C\C/C=C\CCCCCCCC(=O)OCCN(CCOC(=O)CCCCCCC/C=C\C/C=C\CCCCC)C(=O)CN [Compound 96, 2-Amino-N,N-bis(2-((9Z,12Z)-octadec-9,12-dienoyloxy)ethyl)acetamide]
23 | 133.0 nm |  | CCCCCCCC/C=C\CCCCCCCC(=O)OCCN(CCOC(=O)CCCCCCC/C=C\CCCCCCCC)C(=O)[C@@H](N)CCCCN [Compound 97, (S)-2,6-Diamino-N,N-bis(2-((Z)-octadec-9-enoyloxy)ethyl)hexanamido]
24 | 124.1 nm |  | CCCCCCCC/C=C\CCCCCCCC(=O)OCCN(CCOC(=O)CCCCCCC/C=C\CCCCCCCC)C(=O)CN(C)C [Compound 98, 2-(Dimethylamino)-N,N-bis(2-((Z)-octadec-9-enoyloxy)ethyl)acetamide]
25 | 129.6 nm |  | CCCCCCCC/C=C\CCCCCCCC(=O)OCCN(CCOC(=O)CCCCCCC/C=C\CCCCCCCC)C(=O)CCN(C)C [Compound 99, 3-(Dimethylamino)-N,N-bis(2-((Z)-octadec-9-enoyloxy)ethyl)propanamido]
26 | 135.1 nm |  | CCCCC/C=C\C/C=C\CCCCCCCC(=O)OCCN(CCOC(=O)CCCCCCC/C=C\C/C=C\CCCCC)C(=O)[C@@H](N)CCCCN [Compound 100, (S)-2,6-Diamino-N,N-bis(2-((9Z,12Z)-octadec-9,12-dienoyloxy)ethyl)hexanamido]
27 | 154.1 nm |  | CCCCCCCC/C=C\CCCCCCCC(=O)OCCN(CCOC(=O)CCCCCCC/C=C\CCCCCCCC)C(=O)OCCCN(C)C [Compound 116, 3-(Dimethylamino)propyl bis(2-((Z)-1-oxooctadec-9-enyloxy)ethyl)carbamate]
28 | 155.9 nm |  | CCCCC/C=C\C/C=C\CCCCCCCC(=O)OCCN(CCOC(=O)CCCCCCC/C=C\C/C=C\CCCCC)C(=O)OCCCN(C)C [Compound 117, 3-(Dimethylamino)propyl bis(2-((9Z,12Z)-1-oxooctadec-9,12-dienyloxy)ethyl)carbamate]
29 |  | 141.0 nm | CCCCC/C=C\C/C=C\CCCCCCCC(=O)O[C@@H]1CN(C)C[C@H]1OC(=O)CCCCCCC/C=C\C/C=C\CCCCC [Compound A-3, (3R,4R)-1-Methylpyrrolidine-3,4-diyl di((9Z,12Z)-octadec-9,12-dienoate), reference compound]
30 |  | 136.4 nm | CCCCC/C=C\C/C=C\CCCCCCCC(=O)OCCN(C)CCOC(=O)CCCCCCC/C=C\C/C=C\CCCCC [Compound A-5, N-Methyl-N,N-bis(2-((9Z,12Z)-1-oxooctadec-9,12-dienyloxy)ethyl)amine, reference compound]
31 |  | 139.5 nm | CCCCCCCC/C=C\CCCCCCCC(=O)OCCN(C)CCOC(=O)CCCCCCC/C=C\CCCCCCCC [Compound A-6, N-Methyl-N,N-bis(2-((Z)-1-oxooctadec-9-enyloxy)ethyl)amine, reference compound]
